Assay: gradient 5% acetonitrile 3 min, to 50% in 2 min, to 85% in 15 min, held 3 min, 100 µL/min
Details: column: Zorbax Extend-C18 2.1 x 50 mm; eluents: water / acetonitrile, 0.1% formic acid
In short: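 In both positive and negative ionization mode, a quadrupole time-of-flight mass spectrometer coupled to HPLC analyzed pure standards run in mixtures of ~100 molecules. The Zorbax Extend-C18 column (2.1 × 50 mm, 1.8 μm) was operated at 100 μL/min with water and acetonitrile, each containing 0.1% formic acid. The dead volume was 40 μL and the dwell volume 900 μL. Retention time came from adduct peaks that were computationally picked and individually inspected by hand.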

SMILES | RP-LC retention time
Cc1ccc2c(c1)N(Cc1cccc(F)c1)N=C(C(=O)N1CCCC1)S2(=O)=O | 876 s
COc1ccc2[nH]c(=O)c(CCC(=O)NCC(C)C)cc2c1 | 660 s
CCNC(=O)C1CCCN(C(=O)Nc2ccc(NC(=O)Nc3ccc(C)c(C)c3)cc2)C1 (configuration not stated) | 748 s
COc1ccc2[nH]c3c(c2c1)CCN(C(=O)C1CC1)C3c1ccc(F)cc1 (configuration not stated) | 949 s
O=C(Nc1ccc(N2CCN(C3CCCCC3)C2=O)nc1)c1ccc(F)c(F)c1 | 886 s
CCN(CC)CCNC(=O)CN1CC(C)Sc2ccccc21 (configuration not stated) | 656 s
COc1ccc(-c2noc(-c3nn(-c4ccc(F)c(F)c4)ccc3=O)n2)cc1OC | 835 s
Cc1ccc(-c2cn3c(C(=O)Nc4nc(C)cs4)csc3n2)cc1 | 848 s
Cc1ccc(CN2CCN(C3CCN(C(=O)Nc4cccc(C)c4)CC3)C(=O)C2=O)cc1 | 740 s
CCn1ccc2sc(C)c(C(=O)NCc3cc(C)ccc3C)c2c1=O | 959 s
COc1cc2ncnc(Nc3cccc(Br)c3)c2cc1OC | 771 s
COCC(=O)N1CCC2(CC1)NCc1ccccc1-n1ccnc12 | 548 s
CC1(C)COc2ccc(NC(=O)c3ccc(Br)o3)cc2NC1=O | 824 s
CN(C)CCNC(=O)CCc1cc2ccccc2[nH]c1=O | 569 s
CCN(CC)CCn1c(=O)c(Cc2ccc(OC)cc2)nc2ccccc21 | 720 s
O=C(NCc1ccc(F)cc1Cl)c1cn(-c2ccc(NC(=O)C3CC3)cn2)cn1 | 814 s
Cc1nc(-c2ccc(-c3noc(COc4ccccc4)n3)cc2)cs1 | 1180 s
CCN1CCCn2nc(C3CCN(C(=O)COc4cccc(Cl)c4)CC3)cc2C1=O | 751 s
O=C(c1ccc(Cn2c(=O)c3cccn3c3cccnc32)o1)N1CCN(c2ccccn2)CC1 | 615 s
Cc1ccc(NS(=O)(=O)c2cc(-c3[nH]ncc3C(=O)N3CCCC3)oc2C)cc1C | 776 s

SMILES | RP-LC retention time
CCn1cc(-c2nc(C)c(C(=O)NCc3ccccc3)s2)c2cccnc21 | 784 s
Cc1ccc(Nc2c(-c3cccc(Br)c3)nc3ccccn23)cc1 | 778 s
CCn1ncc(C(=O)N2CC(n3cc(COc4ccc(F)cc4)nn3)C2)c1C | 714 s
Cc1nc(N)nc(Cl)c1CCC1OCCO1 | 673 s
O=C(Nc1ccc(Br)cc1F)C1CCN(S(=O)(=O)Cc2ccccc2)CC1 | 1000 s
COc1ccc(-c2cc(C(=O)N3CCN(S(=O)(=O)c4ccc(F)c(C)c4)CC3)[nH]n2)cc1 | 910 s
Cc1nnc2c(=O)n(CC(=O)NCc3ccccc3C(F)(F)F)c3cccnc3n12 | 734 s
O=C(Nc1cc(-c2ccsc2)no1)c1ccc(F)c(F)c1 | 982 s
CCN1C(=O)COc2ccc(-c3csc(NC(=O)C(C)C)n3)cc21 | 830 s
CC1=C(c2ccc(F)cc2)S(=O)(=O)N=C1N1CCCN(C(=O)C2CCCCC2)CC1 | 883 s
COc1ccc(-n2c(=O)n(C)c(=O)c3cc(C(=O)Nc4ccccc4C)cnc32)cc1 | 849 s
Cc1cnc(C2CC2)n1CCNS(=O)(=O)Cc1ccccc1F | 619 s
COc1ccc(-c2nc3cnccn3c2Nc2ccccc2C)cc1OC | 793 s
O=C(C1CCN(c2ncccc2-c2nc(-c3ccccc3)no2)CC1)N1CCOCC1 | 839 s
CCCN1CCN(CCCNC(=O)C2CCN(Cc3cn(C)c4ccc(OC)cc34)CC2)CC1 | 533 s
Cc1ccc(-c2cc3c(=O)n(Cc4noc(CN5CCSCC5)n4)ccn3n2)c(C)c1 | 962 s
CC1CCCN(C(=O)c2ccc(CN3CCN(Cc4ccc(F)cc4)C(=O)C3=O)cc2)C1 (configuration not stated) | 788 s
COc1ccc(CC(=O)Nc2cc3c(cc2SC(C)C)n(C)c(=O)n3C)cc1 | 923 s
CC(=O)c1ccc(N2CCN(C(=O)CN3C(=S)NC(C)(C)CC3C)CC2)cc1 (configuration not stated) | 716 s
CCCN1CCN(C(=O)c2ccc3ccnc(N4CCN(c5ccc(Cl)cc5)CC4)c3c2)CC1 | 643 s

SMILES | RP-LC retention time
Cc1cccc(NC(=O)Cn2nc3n(c2=O)CCCCC3)c1C | 675 s
O=C(COc1ccccc1-c1nc(-c2ccccc2Cl)no1)NCc1ccco1 | 1060 s
Cc1ccc(-c2noc(Cn3ccn(-c4ccccc4C)c(=O)c3=O)n2)cc1 | 680 s
CCCNC(=O)N1CCN(c2nc3ccccc3n(Cc3ccc(C)cc3)c2=O)CC1 | 978 s
Cc1sc(-c2nc(-c3ccc(F)cc3)no2)cc1S(=O)(=O)N1CCN(c2ncccn2)CC1 | 1240 s
O=C(C1=CN(c2ccc3c(c2)OCCO3)c2cc(Cl)ccc2S1(=O)=O)N1CCCCC1 | 873 s
O=C(C1CC1)N1CCc2sc(S(=O)(=O)NCc3ccc4c(c3)OCO4)cc2C1 | 812 s
Cc1cccc(CNC(=O)C2CCN(S(=O)(=O)c3cc(C(=O)N4CCCC4)n(C)c3)CC2)c1 | 747 s
O=C(CCC(=O)N1CCNc2ccccc2C1)N1CCOCC1 | 585 s
COc1ccc2c(c1)C1(CCN(C(=O)Cc3ccc(C)cc3)C1)C(=O)N2 (configuration not stated) | 757 s
Cc1ccc(-c2cn3c(n2)N(C(=O)c2cnn4cccnc24)CCC3)cc1 | 613 s
Cc1nc(CCNS(=O)(=O)c2ccc(Oc3ccccc3)cc2)cs1 | 845 s
O=C(Nc1ccc(N2CCN(c3ccccc3)C2=O)nc1)c1ccc(F)cc1 | 934 s
O=C(Cn1nc(Cc2cccnc2)c2ccccc2c1=O)N1CCN(C(=O)c2ccco2)CC1 | 578 s
Cc1cc(N2CCN(C)CC2)nc(N2CCN(S(=O)(=O)c3cc(C)c(C)cc3C)CC2)n1 | 598 s
CCOC(=O)c1sc(NC(=O)CCCC(=O)O)nc1-c1ccccc1 | 770 s
CCn1cc(C)c(C(=O)O)c1CC(=O)Nc1ccc(F)cc1F | 811 s
Cc1nn2c(S(=O)(=O)N3CCCCC3)c(C)nc2s1 | 792 s
Cc1ccc2nc(Nc3nc(C)cc(C(F)(F)F)n3)nc(C)c2c1 | 713 s

Results, then the compound that gave them:

RP-LC retention time | SMILES
1360 s | CCCCOc1ccc(C(=O)Nc2nc3c(s2)CCc2ccc(OC)cc2-3)cc1
768 s | Cc1ccc(S(=O)(=O)N2CCC3(CC2)NCCN=C3NCc2ccccc2Cl)cc1C
718 s | COCCNC(=O)N1CCCN(C2=NS(=O)(=O)C(c3ccc(Cl)cc3)=C2C)CC1
820 s | COC(=O)c1ccc(C2CC(=O)NC3=C2C(=O)CC(c2ccc(F)cc2)C3)cc1 (configuration not stated)
871 s | CCC(=O)N(CC(=O)N1CCc2sccc2C1COc1ccccc1OC)C1CC1 (configuration not stated)
925 s | c1coc(-c2nnc(-c3cc4ccccc4o3)o2)c1
954 s | COC(=O)C1C(=O)C2=C(CC1C)NC(C)=C(C(=O)OC(C)C)C2c1ccccc1F (configuration not stated)
734 s | O=C(CN1C(=O)C2CCCCN2c2ccc(C(=O)N3CCOCC3)cc21)NCc1ccc(F)cc1 (configuration not stated)
631 s | Cc1ccc(C)c(S(=O)(=O)Nc2ccc3nc(N4CCN(CCC#N)CC4)cc(C(=O)O)c3c2)c1
844 s | O=C(NC1CCCC1)c1ccc(Cn2nc(N3CCN(c4ccccc4)CC3)ccc2=O)o1
714 s | CCc1noc(C)c1-c1[nH]c2ccccc2c1C(=O)C(=O)N(C)C
752 s | CCn1c(N2CCCC(C(=O)NCc3ccc(OC)cc3OC)C2)cc(=O)n(C)c1=O (configuration not stated)
975 s | COc1cc(OC)c(NC(=O)N2CCc3nc(-c4ccccc4)ncc3C2)cc1Cl
712 s | NS(=O)(=O)c1ccc(CCNCc2ccc(-c3cc(Cl)ccc3Cl)o2)cc1
910 s | CC(=O)Nc1ccc(NC(=O)C2CCCN(c3nc4ccccc4nc3C(F)(F)F)C2)cc1 (configuration not stated)
1060 s | COCCN1C(=O)CCc2cc(NS(=O)(=O)c3cc(C)ccc3C)ccc21
696 s | COc1ccc(CC(=O)N2CCCC2c2c(C)noc2C)cc1OC (configuration not stated)
1170 s | COc1ccc(S(=O)(=O)N2CCCC(C(=O)N3CCC(Cc4ccccc4)CC3)C2)cc1Cl (configuration not stated)
1040 s | CCc1cccc(C)c1Nc1c(-c2cc(Br)ccc2O)nc2nc(C)cc(C)n12
853 s | O=c1ccc(N2CCCN(S(=O)(=O)c3cc(F)ccc3F)CC2)nn1-c1ccccc1
1090 s | CCc1ccc(-c2noc(Cn3c(=O)n(-c4ccccc4)c(=O)c4sccc43)n2)cc1
827 s | O=C(C1=CN(c2ccccc2)c2cc(Cl)ccc2S1(=O)=O)N1CCCC1
1210 s | Brc1ccc(Nc2nc(-c3ccccc3)cs2)nc1
807 s | CCC(=O)N(C1CCOCC1)C1CCN(S(=O)(=O)c2cccnc2)CC1
898 s | CCCc1nnsc1C(=O)N1CC(c2nc(Cc3ccccc3OC)no2)C1
983 s | CCn1cc(-c2nc(C(=O)NCc3cccc(F)c3)cs2)c2cccnc21
762 s | Cc1cc2c(=O)n(CC(=O)Nc3ccc(F)cc3C)ccc2s1
816 s | O=C(CSc1ccc(-n2cnc(-c3ccccc3)c2)nn1)Nc1ccc(F)cc1F

Source: the METLIN SMRT retention time set (Domingo-Almenara et al. 2019)
